Measurements from patent US11045457B2, “Piperidinyl-3-(aryloxy)propanamides and propanoates” (priority 2018, dated 2021).

Biological target: SSTR4 (Homo sapiens (Human), UniProt P31391)
Experiment: Inhibition of forskolin stimulated cAMP in CHO-K1 cells overexpressing SSTR4
Format: cell-based
Conditions: for EC50: read-out: SSTR4 Activity pEC50 (converted)
Protocol: Inhibition of Forskolin Stimulated cAMP in Cells Overexpressing SSTR4
This cell-based assay measures the ability of compounds to inhibit forskolin stimulated cAMP in CHO-K1 cells overexpressing SSTR4. CHO-K1 cells overexpressing SSTR4 (CHO-SSTR4) are purchased from DiscoveRx (product code 95-0059C2). The CHO-SSTR4 cells are maintained in F12K media with 10% Fetal Bovine Serum (Hyclone), 1% Pen/Strep (Life Technologies), and 800 μg/mL G418 (Life Technologies). […] The next day, the culture media is removed from the cells and the cells are washed (added then removed) with Kreb's Ringer Buffer (ZenBio, KRB-1000 mL). […] The cells are incubated in […] for 30 minutes at room temperature. Cellular cAMP levels are detected with a HTRF LANCE Ultra cAMP kit (Perkin Elmer, catalog number TRF0264).
The assay is performed in accordance with the manufacturer's instructions. Five μL of diluted Eu-W8044 labeled streptavidin (dilution: 1:50 in cAMP Detection Buffer) is added to each well. Then 5 μL of diluted biotin cAMP (dilution: 1:150 in cAMP Detection Buffer) is added to each well. The plates are covered and allowed to incubate for 60 minutes at room temperature on a shaker. […] The pEC50 values are generated using Activity Base for Screening Data Management.

Chain of SSTR4 (P31391 whole entry): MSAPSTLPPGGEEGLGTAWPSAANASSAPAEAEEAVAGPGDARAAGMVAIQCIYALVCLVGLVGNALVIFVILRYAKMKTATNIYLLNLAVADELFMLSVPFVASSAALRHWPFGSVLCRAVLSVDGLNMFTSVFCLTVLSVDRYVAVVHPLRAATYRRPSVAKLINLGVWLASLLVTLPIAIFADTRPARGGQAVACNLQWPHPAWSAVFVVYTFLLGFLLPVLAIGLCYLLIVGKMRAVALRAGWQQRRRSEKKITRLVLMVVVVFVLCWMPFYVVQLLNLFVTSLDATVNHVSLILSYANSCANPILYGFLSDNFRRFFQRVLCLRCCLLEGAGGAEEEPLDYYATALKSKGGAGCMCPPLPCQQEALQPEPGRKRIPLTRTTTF

In the case of `CN1CCC(NC(=O)C(C)(C)COc2ncc(F)cc2F)CC1` [Example 40, 3-((3,5-difluoropyridin-2-yl)oxy)-2,2-dimethyl-N-(1-methylpiperidin-4-yl)propanamide], the “SSTR4 Activity pEC50” value is reported as 6.1.

In the case of `CN1CCC(NC(=O)C(C)(C)COc2ccc(F)cc2)CC1` [Example 204, 3-(4-fluorophenoxy)-2,2-dimethyl-N-(1-methylpiperidin-4-yl)propanamide], the “SSTR4 Activity pEC50” value is reported as 6.4.

An EC50 of 1 nM was found for `CC[C@@H]1CN(C)CC[C@H]1NC(=O)C(C)(C)COc1ncccc1C(F)(F)F` (single isomer, unassigned) [Example 110, trans-N-(3-ethyl-1-methylpiperidin-4-yl)-2,2-dimethyl-3-((3-(trifluoromethyl)pyridin-2-yl)oxy)propanamide] in this work.

`CC[C@H]1CN(C)CC[C@@H]1NC(=O)C(C)(C)COc1ncccc1C(F)(F)F` [Example 145, N-((3S,4S)-3-ethyl-1-methylpiperidin-4-yl)-2,2-dimethyl-3-((3-(trifluoromethyl)pyridin-2-yl)oxy)propanamide] was tested, and the “SSTR4 Activity pEC50” value was 6.2.

An EC50 of 158 nM was found for `CN1CCC(NC(=O)C(C)(C)COc2ncccc2C(F)(F)F)C12CCC2` (centres unmarked) [Example 151, 2,2-dimethyl-N-(5-methyl-5-azaspiro[3.4]octan-8-yl)-3-((3-(trifluoromethyl)pyridin-2-yl)oxy)propanamide] in this work.

With `CN1CCC(NC(=O)C(C)(C)COc2nccnc2C2CC2)CC1` [Example 80, 3-((3-cyclopropylpyrazin-2-yl)oxy)-2,2-dimethyl-N-(1-methylpiperidin-4-yl)propanamide] the “SSTR4 Activity pEC50” value was 6.1.

In the case of `CN1CCC(NC(=O)C(C)(C)COc2ncccc2C(F)(F)F)CC12CC2` (centres unmarked) [Example 175, 2,2-dimethyl-N-(4-methyl-4-azaspiro[2.5]octan-7-yl)-3-((3-(trifluoromethyl)pyridin-2-yl)oxy)propanamide], the “SSTR4 Activity pEC50” value is reported as 6.2.

In the case of `Cc1ccc(C2CC2)c(OCC(C)(C)C(=O)N[C@@H]2CCN(C)C2)n1` [Example 10, (R)-3-((3-cyclopropyl-6-methylpyridin-2-yl)oxy)-2,2-dimethyl-N-(1-methylpyrrolidin-3-yl)propanamide], the “SSTR4 Activity pEC50” value is reported as 6.8.

In the case of `Cc1cnc(OCC(C)(C)C(=O)N[C@H]2CCN(C)C[C@@H]2F)c(C)c1` [Example 122, 3-((3,5-dimethylpyridin-2-yl)oxy)-N-((3S,4S)-3-fluoro-1-methylpiperidin-4-yl)-2,2-dimethylpropanamide], the “SSTR4 Activity pEC50” value is reported as 6.6.

For `CN1CC[C@@H](NC(=O)C(C)(C)COc2ncccc2OC(F)(F)F)[C@H](c2ccccc2)C1` (relative stereo) [Example 167, 2,2-dimethyl-N-(trans-1-methyl-3-phenylpiperidin-4-yl)-3-((3-(trifluoromethoxy)pyridin-2-yl)oxy)propanamide], the “SSTR4 Activity pEC50” value was 6.8.

With `CN1CCC(NC(=O)C2(COc3ncccc3C3CC3)CCC2)CC1` [Example 89, 1-(((3-cyclopropylpyridin-2-yl)oxy)methyl)-N-(1-methylpiperidin-4-yl)cyclobutane-1-carboxamide] the “SSTR4 Activity pEC50” value was 6.8.

An EC50 of 200 nM was found for `CCc1ccccc1OCC(C)(C)C(=O)N[C@@H]1CN(C)C[C@H]1OC` (relative stereo) [Example 96, trans-3-(2-ethylphenoxy)-N-(4-methoxy-1-methylpyrrolidin-3-yl)-2,2-dimethylpropanamide] in this work.

An EC50 of 0.794 nM was found for `CC(C)[C@@H]1CN(C)CC[C@H]1NC(=O)C(C)(C)COc1ncccc1C(F)(F)F` (relative stereo) [Example 33, trans-N-(3-isopropyl-1-methylpiperidin-4-yl)-2,2-dimethyl-3-((3-(trifluoromethyl)pyridin-2-yl)oxy)propanamide] in this work.

`CN1CCC(NC(=O)C(C)(C)COc2nccc(Cl)c2F)CC1` [Example 44, 3-((4-chloro-3-fluoropyridin-2-yl)oxy)-2,2-dimethyl-N-(1-methylpiperidin-4-yl)propanamide] was tested, and the “SSTR4 Activity pEC50” value was 5.9.

An EC50 of 63.1 nM was found for `Cc1ccc([C@@H]2CN(C)C[C@H]2NC(=O)C(C)(C)COc2ncccc2C2CC2)cn1` (relative stereo) [Example 61, trans-3-((3-cyclopropylpyridin-2-yl)oxy)-2,2-dimethyl-N-(1-methyl-4-(6-methylpyridin-3-yl)pyrrolidin-3-yl)propanamide] in this work.

An EC50 of 25.1 nM was found for `CN1C[C@@H](NC(=O)C(C)(C)COc2ncccc2C(F)(F)F)[C@H](c2ccc(Cl)cc2)C1` (relative stereo) [Example 56, trans-N-(4-(4-chlorophenyl)-1-methylpyrrolidin-3-yl)-2,2-dimethyl-3-((3-(trifluoromethyl)pyridin-2-yl)oxy)propanamide] in this work.

In the case of `CN1C[C@@H](NC(=O)C(C)(C)COc2ncccc2C(F)(F)F)C2(CC2)C1` [Example 173, (S)-2,2-dimethyl-N-(5-methyl-5-azaspiro[2.4]heptan-7-yl)-3-((3-(trifluoromethyl)pyridin-2-yl)oxy)propanamide], the “SSTR4 Activity pEC50” value is reported as 6.3.

With `CN1CC[C@@H](NC(=O)C(C)(C)COc2ncncc2C2CC2)C1` [Example 4, (R)-3-((5-cyclopropylpyrimidin-4-yl)oxy)-2,2-dimethyl-N-(1-methylpyrrolidin-3-yl)propanamide] the “SSTR4 Activity pEC50” value was 6.5.

`Cc1cccnc1OCC(C)(C)C(=O)NC1CCN(C)C1` (centres unmarked) [Example 2, 2,2-dimethyl-3-((3-methylpyridin-2-yl)oxy)-N-(1-methylpyrrolidin-3-yl)propanamide] was tested, and the “SSTR4 Activity pEC50” value was 6.3.

With `CN(C(=O)C(C)(C)COc1ncccc1C(F)(F)F)[C@H]1CCNC[C@@H]1F` [Example 160, N-((3S,4S)-3-fluoropiperidin-4-yl)-N,2,2-trimethyl-3-((3-(trifluoromethyl)pyridin-2-yl)oxy)propanamide] the “SSTR4 Activity pEC50” value was 6.4.

With `CCC1CC(NC(=O)C(C)(C)COc2ncccc2C(F)(F)F)CCN1C` (centres unmarked) [Example 137, N-(2-ethyl-1-methylpiperidin-4-yl)-2,2-dimethyl-3-((3-(trifluoromethyl)pyridin-2-yl)oxy)propanamide] the “SSTR4 Activity pEC50” value was 6.7.

With `CN1CCC(NC(=O)C(C)(C)COc2ncccc2OC(F)(F)F)CC12CC2` (centres unmarked) [Example 174, 2,2-dimethyl-N-(4-methyl-4-azaspiro[2.5]octan-7-yl)-3-((3-(trifluoromethoxy)pyridin-2-yl)oxy)propanamide] the “SSTR4 Activity pEC50” value was 7.0.

For `O=C(N[C@H]1CCNC[C@@H]1F)C(F)(F)COc1ncccc1C1CC1` [Example 198, 3-((3-cyclopropylpyridin-2-yl)oxy)-2,2-difluoro-N-((3S,4S)-3-fluoropiperidin-4-yl)propanamide], the “SSTR4 Activity pEC50” value was 8.2.

For `Cc1cc(C#N)cnc1OCC(C)(C)C(=O)NC1CCN(C)CC1` [Example 51, 3-((5-cyano-3-methylpyridin-2-yl)oxy)-2,2-dimethyl-N-(1-methylpiperidin-4-yl)propanamide], the “SSTR4 Activity pEC50” value was 6.1.

`CN1CCC(NC(=O)C(C)(C)COc2ncc(F)cc2Cl)CC1` [Example 45, 3-((3-chloro-5-fluoropyridin-2-yl)oxy)-2,2-dimethyl-N-(1-methylpiperidin-4-yl)propanamide] was tested, and the “SSTR4 Activity pEC50” value was 5.8.

An EC50 of 251 nM was found for `Cc1cnc(OCC(C)(C)C(=O)N[C@@H]2CN(C)C[C@H]2C)c(C)c1` (relative stereo) [Example 183, 3-((3,5-dimethylpyridin-2-yl)oxy)-N-(trans-1,4-dimethylpyrrolidin-3-yl)-2,2-dimethylpropanamide] in this work.

An EC50 of 25.1 nM was found for `C[C@@H]1CN(C)CC[C@@H]1NC(=O)C(C)(C)COc1ncccc1C1CC1` (racemic) [Example 21, cis-3-((3-cyclopropylpyridin-2-yl)oxy)-N-(1,3-dimethylpiperidin-4-yl)-2,2-dimethylpropanamide] in this work.

An EC50 of 31.6 nM was found for `CN1C[C@@H](NC(=O)C(C)(C)COc2ncccc2C(F)(F)F)[C@H](c2ccc(C(F)(F)F)nc2)C1` (relative stereo) [Example 59, trans-2,2-dimethyl-N-(1-methyl-4-(6-(trifluoromethyl)pyridin-3-yl)pyrrolidin-3-yl)-3-((3-(trifluoromethyl)pyridin-2-yl)oxy)propanamide] in this work.

`Cc1ccc(C)c(OCC(C)(C)C(=O)NC2CCN(C)CC2)n1` [Example 83, 3-((3,6-dimethylpyridin-2-yl)oxy)-2,2-dimethyl-N-(1-methylpiperidin-4-yl)propanamide] was tested, and the “SSTR4 Activity pEC50” value was 7.3.

For `CCc1cccnc1OCC(C)(C)C(=O)N[C@@H]1CCN(C)C1` [Example 86, (R)-3-((3-ethylpyridin-2-yl)oxy)-2,2-dimethyl-N-(1-methylpyrrolidin-3-yl)propanamide], the “SSTR4 Activity pEC50” value was 7.3.

In the case of `Cc1cccnc1OCC1(C(=O)NC2CCN(C)CC2)CC1` [Example 63, N-(1-methylpiperidin-4-yl)-1-(((3-methylpyridin-2-yl)oxy)methyl)cyclopropane-1-carboxamide], the “SSTR4 Activity pEC50” value is reported as 5.8.

In the case of `CN1CCC(NC(=O)C(C)(C)COc2ccncc2C(F)(F)F)CC1` [Example 43, 2,2-dimethyl-N-(1-methylpiperidin-4-yl)-3-((3-(trifluoromethyl)pyridin-4-yl)oxy)propanamide], the “SSTR4 Activity pEC50” value is reported as 6.9.
